This note sets out measurements from article PMC12162873, “Modulating phosphatase DUSP22 with BML-260 ameliorates skeletal muscle wasting via Akt independent JNK-FOXO3a repression” (EMBO Molecular Medicine, 2025).

The assay has as its system C2C12 murine myotubes. Description: RNA Seq of DUSP22 expression in Dex-treated C2C12 myotubes. The class given is cell-based, mouse. To be noted: C2C12 myotubes treated with Dex, three clusters of n = 3, replicates. The procedure: (A) DUSP22 expression in aged individuals (over 70 years, n = 15) and aged individuals diagnosed with sarcopenia (over 70 years, n = 18), p = 0.0009 (obtained from the Singapore Sarcopenia Study; (GEO accession no. GSE111016 (Migliavacca et al, [2019])). (B) DUSP22 expression in C2C12 murine myotubes treated with vehicle or dexamethasone (Dex) to induce atrophy (n = 3 each) Custer 1 (p = 0.024), Cluster 2 (p = 0.13), Cluster 3 (p = 0.0246). Expression was measured using RNA Seq. TPM=transcript per million. (C) qPCR analysis of DUSP22 expression in four models of muscle atrophy: (1) C2C12 myotubes treated with Dex (n = 5), p = 7.67E−05, (2) the TA muscle of C57BL/6 mice treated with Dex (n = 4), p = 0.09, (3) the TA muscle of young (5 months-old, n = 9) and geriatric (27 months-old, n = 8) C57BL/6 mice, p = 0.0324, (4) the TA of C57BL/6 mice after hind limb immobilization (n = 3), p = 0.018. (D) qPCR of DUSP22 expression in C2C12 myoblasts transfected with a DUSP22 CRISPR activation plasmid (DUSP22^endoOE) or control plasmid (CON^endoOE) (n = 3), p = 0.0022. (E) Fast myosin (MYH2) immunocytochemistry of CON^endoOE and DUSP22^endoOE myoblasts after 96 h culture in DM (scale bar = 100 µm). (F) Fusion index (n = 6). (G) Differentiation index (n = 6), p = 9.91E−09. […]

Where “and” joins values, the source holds several entries; their conditions need not be identical. Equal entries are not always repeated.

In the case of `C[C@@H]1C[C@H]2[C@@H]3CCC4=CC(=O)C=C[C@]4(C)[C@@]3(F)[C@@H](O)C[C@]2(C)[C@@]1(O)C(=O)CO` [Dex, dexamethasone], the “DUSP22 expression, RNA Seq” value is 18.5715 TPM and 15.8769 TPM and 15.1133 TPM and 25.7965 TPM and 17.3247 TPM and 20.9604 TPM and 20.6804 TPM and 15.7123 TPM and 15.7246 TPM.
